Experimental data published in patent publication US20230139826A1 (NONO INC., priority 2020, published 2023).
Marks after values point to notes of the source that are not given here. Residues, ends and D or L forms follow the SMILES beside them.

Key:
[1] = In-vitro peptide degradation assay in rat plasma with rt-PA or TNK
Procedure: To determine nerinetide stability in the presence of rt-PA in plasma, we use an in-vitro peptide content analysis by HPLC. In brief, Nerinetide or D-Tat-L-2B9c were spiked into rat or human plasma at a concentration of 65 ug/ml. rt-PA was added after the baseline time-point was collected, at the specified concentrations. rt-PA administration followed the clinical dosing approach [10% bolus dose followed by 60-mins infusion (90% of the dose)], using a Harvard apparatus pump. Sample collection following IV bolus was performed at 5 min, 15 min, 30 min and 45 min post-dose. At each time point, approximately 100 uL of plasma was collected from each vial using a fresh syringe. Plasma was then collected and stored at -80° C. until analyzed.
Nerinetide or D-Tat-L2B9c was extracted by precipitation with 1M perchloric acid. All analyses were performed on an Agilent 1260 Infinity Quaternary LC System (Agilent Technologies, Santa Clara, Calif., USA) and on a 25 cm [YMAA12S052546WT] C-18 RP-HPLC column (Agilent Technologies, Santa Clara, Calif., USA). The column was equilibrated with 10% acetonitrile with 0.1% TFA at 40° C. The eluent flow was 1.5 ml/min (gradient from 10% to 35% acetonitrile in 0.1% TFA) The UV trace was recorded at 220 nm. Concentrations of nerinetide or D-Tat-L-2B9c were derived from calibration standards obtained by spiking the agent into plasma.

[2] = system: transient middle cerebral artery occlusion (tMCAO); assay: Rat transient middle cerebral artery occlusion model
Procedure: Nerinetide and lodoxamide was administered to rats intravenously as a bolus injection, 60 minutes after tMCAo. […] Bars in A and represent mean±SD, with all individual data points plotted. Asterisks in A indicate P<0.01 when compared to the vehicle group (one-way ANOVA post hoc Tukey's correction for multiple comparisons test) N=12-14 animals/group. […] Significant differences are indicated with an asterisk when compared to the vehicle group (Kruskal-Wallis analysis of variance on ranks with a post-hoc Dunn's correction for multiple comparisons test, *P<0.01). Vehicle: PBS alone. Scrambled: ADA peptide incapable of binding PSD-95.
All animals subjected to surgery had their physiological parameters measured prior to MCA occlusion. PE-50 polyethylene tubing was inserted into the right femoral artery for invasive monitoring of mean arterial blood pressure and for obtaining blood samples to measure blood gases (pH, PaO2, and PaCO2), electrolytes (Na^+, K^+, iCa) and plasma glucose at baseline [Blood gas cartridge CG8+, VetScan i-STAT 1 Analyzer].
Infarct volumes and hemispheric swelling were evaluated at 24 hours post-stroke from standard brain slices stained with 2% 2,3,5-triphenyltetrazolium chloride (Sigma Aldrich, St. Louis, Md., USA)(7). Neurologic scoring was conducted at 24 hours after stroke onset using forelimb-placing tests comprising of frontal visual placing, sideways visual placing, frontal tactile placing, sideways tactile placing, and vertical tactile placing (scores range from 0-2 in each component for a maximum of 12 indicating maximum impairment.

[3] = system: acute ischemic stroke; assay: ESCAPE-NA1 trial: efficacy of intravenous nerinetide in patients with acute ischemic stroke undergoing thrombectomy; format: in vivo, human
Procedure: ESCAPE-NA1 was a multicenter, randomized, double-blinded, placebo-controlled, parallel group, single-dose study to determine the efficacy and safety of intravenous nerinetide in patients with acute ischemic stroke who were selected to undergo thrombectomy. Patients were randomized in a 1:1 ratio to receive a single, 2.6 mg/kg (up to a maximum dose of 270 mg) intravenous dose of nerinetide or saline placebo delivered over 10+1 minutes. Nerinetide and placebo were prepared as colorless solutions in numbered, refrigerated vials.
Randomization in a 1:1 ratio to nerinetide or placebo occurred using a real-time, dynamic, Internet-based, stratified randomized minimization procedure. Stratification occurred on the use of intravenous alteplase (yes/no) and declared initial thrombectomy device (stent-retriever or aspiration device). The choice to stratify was based upon the possibility of drug-drug or drug-device interactions. Randomized minimization occurring within strata aimed to achieve distribution balance with regard to age, sex, baseline National Institutes of Health Stroke Scale (NIHSS) score (range, 0 to 42, with higher scores indicating greater stroke severity), site of arterial occlusion, baseline Alberta Stroke Program Early Computed Tomography Score (ASPECTS; range, 0 to 10, with 1 point subtracted for any evidence of early ischemic change in each defined region on the CT scan) and clinical site.
Eligible patients were adults aged 18 or greater with a disabling ischemic stroke at the time of randomization (baseline NIHSS>5), who had been functioning independently in the community (Barthel Index score>90 [range, 0 to 100, with higher scores indicating a greater ability to complete activities of daily living])^1 before the stroke. Enrollment occurred up to 12 hours after the onset of stroke symptoms (last-seen-well time). Non-contrast CT and multiphase CTA were performed at the thrombectomy center to identify patients with a confirmed proximal intracranial artery occlusion, defined as the intracranial internal carotid artery or the first segment of the middle cerebral artery or both.
After qualifying imaging, patients were treated with rapid EVT using currently available devices. Some patients received intravenous alteplase according to usual care following national or regional guidelines, before or during EVT, at a primary hospital prior to transfer or at the endovascular center. Interpretation of treatment guidelines was at the discretion of the treating team. Patients treated with alteplase more than 4.5 hours from stroke onset were not excluded from the trial for this reason alone. Patients had to meet inclusion and exclusion criteria at the EVT hospital. Patients received trial drug, as a single dose of 2.6 mg/kg to a maximum dose of 270 mg, based upon estimated or actual weight (if known) using a dedicated intravenous line. The trial drug was administered as soon as possible after randomization.
Time targets were imaging to randomization 30 minutes, imaging to study drug administration ≤60 minutes, and imaging to arterial access/puncture ≤60 minutes. Targets from imaging to reperfusion were 90th percentile ≤90 minutes and a median at ≤75 minutes. In general, the order of events was imaging to determine eligibility for EVT treatment, study randomization, administration of alteplase (in some patients), administration of nerinetide, and performance of EVT.
The primary outcome was good outcome as defined by a score of 0-2 on the modified Rankin scale (mRS) (range, 0 [no symptoms] to 6 [death]) for the assessment of neurologic functional disability^2 assessed in person or, if an in-person visit was not possible, by telephone, at 90 days after randomization by personnel certified in the scoring of the mRS. […]

[4] = Alteplase stratum, nerinetide n = 330
[5] = No Alteplase stratum, nerinetide n = 219
[6] = No Alteplase stratum, nerinetide n = 219, missing imputed as deaths
[7] = all patients (ITT), nerinetide vs placebo, 90 days
[8] = all patients, nerinetide group n = 549, 90 days
[9] = all patients, nerinetide vs placebo

SMILES: CC[C@H](C)[C@H](NC(=O)[C@H](CO)NC(=O)[C@H](CO)NC(=O)[C@H](CC(C)C)NC(=O)[C@H](CCCCN)NC(=O)[C@H](CCCN=C(N)N)NC(=O)[C@H](CCCN=C(N)N)NC(=O)[C@H](CCCN=C(N)N)NC(=O)[C@H](CCC(N)=O)NC(=O)[C@H](CCCN=C(N)N)NC(=O)[C@H](CCCN=C(N)N)NC(=O)[C@H](CCCCN)NC(=O)[C@H](CCCCN)NC(=O)[C@H](CCCN=C(N)N)NC(=O)CNC(=O)[C@@H](N)Cc1ccc(O)cc1)C(=O)N[C@@H](CCC(=O)O)C(=O)N[C@@H](CO)C(=O)N[C@@H](CC(=O)O)C(=O)N[C@H](C(=O)O)C(C)C [Nerinetide] (H-YGRKKRRQRRRKLSSIESDV-OH)
- nerinetide content in rat plasma on addition of alteplase ([1]; 65 ug/ml nerinetide, 37° C., alteplase over 60 minutes): reduced the nerinetide content in rat plasma in a concentration-dependent manner
- elimination in rat plasma with tenecteplase (TNK) ([1]; TNK 37.5 ug/ml): rapid elimination
- stability alone in rat plasma ([1]; absence of alteplase): stable
- degradation in rat plasma with alteplase ([1]; rt-PA 135 ug/ml): rapid degradation
- neurological function 24 hours after tMCAo ([2]; doses as low as 0.25 mg/kg): improvement
- infarct volume 24 hours after tMCAo ([2]; doses as low as 0.25 mg/kg, vs vehicle): significant reduction
- efficacy in tMCAo ([2]; doses of as little as 0.025 mg/kg): effective
- efficacy in tMCAo ([2]; doses up to at least 25 mg/kg): effective
- reducing infarction volume, hemispheric swelling and improving neurological scores ([2]; rat tMCAO, comparison of the two peptides): equally effective
- dose with the highest efficacy ([2]; rat tMCAo dose-response): about 15 mg/kg
- effective dosage range (reducing infarction size and neurologic deficit) ([2]; rat tMCAo, iv bolus 60 minutes after tMCAo, with lodoxamide): 0.025-25 mg/kg
- BI 95-100, unadjusted RR (CI95) ([3]; Alteplase stratum): 0.96 (0.86-1.07)
- Deaths without imputation, RR ([3]; Alteplase stratum): 1.24
- Infarct volume (cubic root transformation), beta coefficient ([3]; Alteplase stratum): 0.20 (−0.56 to 0.95)** ml^1/3
- Infarct volume (median) ([3]; Alteplase stratum): 22.7 mL
- Mortality, unadjusted RR (CI95) ([3]; Alteplase stratum): 1.14 (0.74-1.76)
- NIHSS 0-2, unadjusted RR (CI95) ([3]; Alteplase stratum): 0.92 (0.81-1.04)
- mRS 0-1, unadjusted RR (CI95) ([3]; Alteplase stratum): 0.92 (0.77-1.10)
- mRS 0-2, unadjusted RR (CI95) ([3]; Alteplase stratum): 0.96 (0.85-1.07)
- BI 95-100, adjusted risk ratio (95% confidence interval) ([3]; Alteplase stratum (n = 659)): 0.97 (0.88-1.08)
- Mortality, adjusted risk ratio (95% confidence interval) ([3]; Alteplase stratum (n = 659)): 1.08 (0.70-1.66)
- NIHSS 0-2, adjusted risk ratio (95% confidence interval) ([3]; Alteplase stratum (n = 659)): 0.92 (0.82-1.04)
- mRS 0-1, adjusted risk ratio (95% confidence interval) ([3]; Alteplase stratum (n = 659)): 0.91 (0.78-1.08)
- mRS 0-2, adjusted risk ratio (95% confidence interval) ([3]; Alteplase stratum (n = 659), nerinetide vs placebo, 90 days): 0.97 (0.87-1.08)
- mRS 0-2, adjusted risk ratio (95% confidence interval) ([3]; Alteplase stratum (n = 659), nerinetide vs placebo, 90 days, listed as nerinetide): 0.97
- BI 95-100, patients number (proportion) [3, 4]: 213 (64.5%)
- Mortality, patients number (proportion) [3, 4]: 39 (11.8%)
- NIHSS 0-2, patients number (proportion) [3, 4]: 191 (57.9%)
- mRS 0-1, patients number (proportion) [3, 4]: 138 (41.8%)
- mRS 0-2, patients number (proportion) [3, 4]: 207 (62.7%)
- mRS 0-2, patients number (proportion) ([3]; Alteplase stratum, nerinetide n = 330, listed as nerinetide): 62.7%
- Infarct volume, absolute volume difference of medians ([3]; Alteplase stratum, nerinetide vs placebo): 1.6* ml
- BI 95-100, unadjusted RR (CI95) ([3]; No Alteplase stratum): 1.16 (0.98-1.38)
- Deaths without imputation, RR ([3]; No Alteplase stratum): 0.60
- Infarct volume (cubic root transformation), beta coefficient ([3]; No Alteplase stratum): −0.98 (−1.91 to −0.05)** ml^1/3
- Infarct volume (median) ([3]; No Alteplase stratum): 26.7 mL
- Mortality, unadjusted RR (CI95) ([3]; No Alteplase stratum): 0.63 (0.41-0.97)
- NIHSS 0-2, unadjusted RR (CI95) ([3]; No Alteplase stratum): 1.18 (1.00-1.40)
- mRS 0-1, unadjusted RR (CI95) ([3]; No Alteplase stratum): 1.13 (0.88-1.45)
- mRS 0-2, unadjusted RR (CI95) ([3]; No Alteplase stratum): 1.19 (1.01-1.41)
- BI 95-100, adjusted risk ratio (95% confidence interval) ([3]; No Alteplase stratum (n = 446)): 1.14 (0.97-1.34)
- Mortality, adjusted risk ratio (95% confidence interval) ([3]; No Alteplase stratum (n = 446)): 0.66 (0.44-0.99)
- NIHSS 0-2, adjusted risk ratio (95% confidence interval) ([3]; No Alteplase stratum (n = 446)): 1.14 (0.97-1.34)
- mRS 0-1, adjusted risk ratio (95% confidence interval) ([3]; No Alteplase stratum (n = 446)): 1.04 (0.82-1.31)
- mRS 0-2, adjusted risk ratio (95% confidence interval) ([3]; No Alteplase stratum (n = 446), nerinetide vs placebo, 90 days): 1.18 (1.01-1.38)
- mRS 0-2, adjusted risk ratio (95% confidence interval) ([3]; No Alteplase stratum (n = 446), nerinetide vs placebo, 90 days, listed as nerinetide): 1.18
- BI 95-100, number of patients [3, 5]: 128
- BI 95-100, proportion of patients [3, 5]: (58.4%)
- NIHSS 0-2, number of patients [3, 5]: 129
- NIHSS 0-2, proportion of patients [3, 5]: (58.9%)
- mRS 0-1, number of patients [3, 5]: 84
- mRS 0-1, proportion of patients [3, 5]: (38.4%)
- mRS 0-2, number of patients [3, 5]: 130
- mRS 0-2, proportion of patients [3, 5]: (59.3%)
- Mortality, number of patients [3, 6]: 28
- Mortality, proportion of patients [3, 6]: (12.8%)
- mRS 0-2, proportion of patients ([3]; No Alteplase stratum, nerinetide n = 219, listed as nerinetide): 59.3%
- Infarct volume, absolute volume difference of medians ([3]; No Alteplase stratum, nerinetide vs placebo): −12.5* ml
- mRS 0-2, adjusted risk ratio (95% confidence interval) ([3]; all patients (ITT), nerinetide 2.6 mg/kg iv vs placebo, 90 days): 1.04 (0.96-1.14)
- mRS 0-2, adjusted risk ratio (95% confidence interval) ([3]; all patients (ITT), nerinetide 2.6 mg/kg iv vs placebo, 90 days, listed as nerinetide): 1.04
- BI 95-100, adjusted risk ratio (95% confidence interval) [3, 7]: 1.03 (0.94-1.12)
- Mortality, adjusted risk ratio (95% confidence interval) [3, 7]: 0.84 (0.63-1.13)
- NIHSS 0-2, adjusted risk ratio (95% confidence interval) [3, 7]: 1.01 (0.92-1.11)
- mRS 0-1, adjusted risk ratio (95% confidence interval) [3, 7]: 0.98 (0.85-1.12)
- Infarct volume (median) ([3]; all patients, 24-hour imaging): 23.7 mL
- Infarct volume (median) ([3]; all patients, 24-hour imaging, listed as nerinetide): 26.0 (iqr 6.6-101.5) ml
- BI 95-100, patients number (proportion) [3, 8]: 341 (62.1%)
- NIHSS 0-2, patients number (proportion) [3, 8]: 320 (58.3%)
- mRS 0-1, patients number (proportion) [3, 8]: 222 (40.4%)
- mRS 0-2, patients number (proportion) [3, 8]: 337 (61.4%)
- Mortality, patients number (proportion) ([3]; all patients, nerinetide group n = 549, 90 days, missing outcomes imputed as deaths): 67 (12.2%)
- mRS 0-2, patients number (proportion) ([3]; all patients, nerinetide group n = 549, 90 days, listed as nerinetide): 61.4%
- Infarct volume (cubic root transformation), adjusted beta coefficient ([3]; all patients, nerinetide vs control, 24-hour imaging): −0.29 (−0.87 to 0.30)** ml^1/3
- BI 95-100, unadjusted RR (CI95) [3, 9]: 1.03 (0.94-1.13)
- Deaths without imputation, RR [3, 9]: 0.87
- Infarct volume, absolute volume difference of medians [3, 9]: −2.3* ml
- NIHSS 0-2, unadjusted RR (CI95) [3, 9]: 1.01 (0.92-1.12)
- mRS 0-1, unadjusted RR (CI95) [3, 9]: 0.99 (0.86-1.15)
- mRS 0-2, unadjusted RR (CI95) [3, 9]: 1.04 (0.94-1.14)
- Mortality, unadjusted RR (CI95) ([3]; all patients, nerinetide vs placebo, missing imputed as deaths): 0.85 (0.63-1.15)
- Infarct volume, mean ([3]; alteplase group): 73.3 mL
- Infarct volume, mean ([3]; no alteplase group): 67.8 mL
- Number-needed-to-treat ([3]; no-alteplase stratum): 10-11 patients
- absolute benefit ([3]; no-alteplase stratum): 9.4%
- absolute risk reduction in mortality at 90 days ([3]; stratum that did not receive alteplase): 7.5%
- hazard of death, adj HR ([3]; stratum that did not receive alteplase, Cox model): 0.56
